Consider 4 compounds from PubChem BioAssay AID1259407 (Chemical Carcinogenesis Research Information System (CCRIS), 2018).

The test system of the data set is CCRIS mutagenicity, Ames/micronucleus/aberration tests. Nature of the data set: CCRIS mutagenicity studies. To be noted: Test System: AMES SALMONELLA TYPHIMURIUM
Setting [1] is: Strain/Indicator: TA98, Metabolic Activation: NONE, Method: PREINCUBATION
Where [2] appears, read: Strain/Indicator: TA100, Metabolic Activation: NONE, Method: PREINCUBATION
[3] abbreviates: Strain/Indicator: TA1535, Metabolic Activation: NONE, Method: PREINCUBATION

Active and inactive are the calls of the source. How the calls were made is not given here.

`CC(C)(C)C(=O)C1C(=O)c2ccccc2C1=O`: the mutagenic call reads like this: (Strain/Indicator: TA98, Metabolic Activation: HAMSTER, LIVER, S-9, AROCLOR 1254 (10%), Method: PREINCUBATION) “inactive; negative”; under setting [1], “inactive; negative”; (Strain/Indicator: TA98, Metabolic Activation: RAT, LIVER, S-9, AROCLOR 1254 (10%), Method: PREINCUBATION) “inactive; negative”; (Strain/Indicator: TA100, Metabolic Activation: HAMSTER, LIVER, S-9, AROCLOR 1254 (10%), Method: PREINCUBATION) “inactive; negative”; under setting [2], “inactive; negative”; (Strain/Indicator: TA100, Metabolic Activation: RAT, LIVER, S-9, AROCLOR 1254 (10%), Method: PREINCUBATION) “inactive; negative”. The mutagenic call runs as follows: (Strain/Indicator: TA1535, Metabolic Activation: HAMSTER, LIVER, S-9, AROCLOR 1254 (10%), Method: PREINCUBATION) “inactive; negative”; under setting [3], “inactive; negative”; (Strain/Indicator: TA1535, Metabolic Activation: RAT, LIVER, S-9, AROCLOR 1254 (10%), Method: PREINCUBATION) “inactive; negative”; (Strain/Indicator: TA1537, Metabolic Activation: HAMSTER, LIVER, S-9, AROCLOR 1254 (10%), Method: PREINCUBATION) “inactive; negative”; (Strain/Indicator: TA1537, Metabolic Activation: NONE, Method: PREINCUBATION) “inactive; negative”; (Strain/Indicator: TA1537, Metabolic Activation: RAT, LIVER, S-9, AROCLOR 1254 (10%), Method: PREINCUBATION) “inactive; negative”.
On to `Nc1c(O)cc(Cc2cc(Cl)c(N)c(OS(=O)(=O)O)c2)cc1Cl`, for which the mutagenic call runs as follows: (Strain/Indicator: TA1538, Metabolic Activation: NONE, Method: PREINCUBATION) “inactive; negative”; (Strain/Indicator: TA1538, Metabolic Activation: NONE, Method: STANDARD PLATE) “inactive; negative”.
With `CCCCCCC[CH2][Sn]([CH2]CCCCCCC)([S]CC(=O)OCCCCCC(C)C)[S]CC(=O)OCCCCCC(C)C`, the mutagenic call was “inactive; negative” (Strain/Indicator: TA97, Metabolic Activation: HAMSTER, LIVER, S-9, AROCLOR 1254 (10 OR 30%), Method: PREINCUBATION); “inactive; negative” (Strain/Indicator: TA97, Metabolic Activation: NONE, Method: PREINCUBATION); “inactive; negative” (Strain/Indicator: TA97, Metabolic Activation: RAT, LIVER, S-9, AROCLOR 1254 (10 OR 30%), Method: PREINCUBATION); “inactive; negative” (Strain/Indicator: TA98, Metabolic Activation: HAMSTER, LIVER, S-9, AROCLOR 1254 (10 OR 30%), Method: PREINCUBATION); “inactive; negative” under setting [1]; “inactive; negative” (Strain/Indicator: TA98, Metabolic Activation: RAT, LIVER, S-9, AROCLOR 1254 (10 OR 30%), Method: PREINCUBATION). Also, the mutagenic call is “inactive; negative” (Strain/Indicator: TA100, Metabolic Activation: HAMSTER, LIVER, S-9, AROCLOR 1254 (10 OR 30%), Method: PREINCUBATION); “active; positive” under setting [2]; “inactive; negative” (Strain/Indicator: TA100, Metabolic Activation: RAT, LIVER, S-9, AROCLOR 1254 (10 OR 30%), Method: PREINCUBATION); “inactive; negative” (Strain/Indicator: TA1535, Metabolic Activation: HAMSTER, LIVER, S-9, AROCLOR 1254 (10 OR 30%), Method: PREINCUBATION); “inactive; negative” under setting [3]; “inactive; negative” (Strain/Indicator: TA1535, Metabolic Activation: RAT, LIVER, S-9, AROCLOR 1254 (10 OR 30%), Method: PREINCUBATION).
As for `Nc1cc2nc3ccccc3nc2cc1N`, the mutagenic call reads like this: (Strain/Indicator: TA98(1,8-DNP6), Metabolic Activation: NONE, Method: PREINCUBATION) “inactive; negative”; (Strain/Indicator: TA98(1,8-DNP6), Metabolic Activation: S-9, Method: PREINCUBATION) “active; positive”; under setting [1], “inactive; negative”; (Strain/Indicator: TA98, Metabolic Activation: NONE, Method: STANDARD PLATE) “active; positive”; (Strain/Indicator: TA98, Metabolic Activation: RAT, LIVER, S-9, AROCLOR 1254, Method: STANDARD PLATE) “active; positive”; (Strain/Indicator: TA98, Metabolic Activation: S-9, Method: PREINCUBATION) “active; positive”. For the same compound, the mutagenic call runs as follows: (Strain/Indicator: TA98, Metabolic Activation: S-9, Method: SUSPENSION/PLATE) “active; positive”; (Strain/Indicator: TA100(OAT-), Metabolic Activation: NONE, Method: PREINCUBATION) “inactive; negative”; (Strain/Indicator: TA100(OAT-), Metabolic Activation: S-9, Method: PREINCUBATION) “inactive; negative”; under setting [2], “inactive; negative”; (Strain/Indicator: TA100, Metabolic Activation: NONE, Method: STANDARD PLATE) “inactive; negative”; (Strain/Indicator: TA100, Metabolic Activation: RAT, LIVER, S-9, AROCLOR 1254, Method: STANDARD PLATE) “active; positive”. Further, the mutagenic call is “active; positive” (Strain/Indicator: TA100, Metabolic Activation: S-9, Method: PREINCUBATION); “active; positive” (Strain/Indicator: TA1029, Metabolic Activation: S-9, Method: PREINCUBATION); “active; positive” (Strain/Indicator: TA1537, Metabolic Activation: NONE, Method: STANDARD PLATE); “active; positive” (Strain/Indicator: TA1537, Metabolic Activation: RAT, LIVER, S-9, AROCLOR 1254, Method: STANDARD PLATE); “active; positive” (Strain/Indicator: YG1024, Metabolic Activation: PLANT CELL-FREE EXTRACT, Method: PREINCUBATION); “active; positive” (Strain/Indicator: YG1024, Metabolic Activation: S-9, Method: PREINCUBATION). Besides, the mutagenic call is “active; positive” (Strain/Indicator: YG1029, Metabolic Activation: PLANT CELL-FREE EXTRACT, Method: PREINCUBATION) and “active; positive” (Strain/Indicator: YG1029, Metabolic Activation: S-9, Method: PREINCUBATION).
